From ChEMBL document CHEMBL1932982, “Virtual ligand screening of α-glucosidase: Identification of a novel potent noncarbohydrate mimetic inhibitor” (Bioorg Med Chem Lett, 2012)
Calls of active or inactive are those of the source. No cut-off for these calls is given here.

Tests used:
[1] = Inhibition of Saccharomyces cerevisiae alpha-glucosidase using 4-nitrophenyl alpha-D-glucopyranoside as substrate preincubated for 120 mins
[2] = system: Saccharomyces cerevisiae; assay: Time dependent inhibition of Saccharomyces cerevisiae alpha-glucosidase using 4-nitrophenyl alpha-D-glucopyranoside as substrate
[3] = system: Saccharomyces cerevisiae; assay: Inhibition of Saccharomyces cerevisiae alpha-glucosidase using 4-nitrophenyl alpha-D-glucopyranoside as substrate
[4] = system: Saccharomyces cerevisiae; assay: Irreversible inhibition of Saccharomyces cerevisiae alpha-glucosidase using 4-nitrophenyl alpha-D-glucopyranoside as substrate at 300 uM after 30 mins

| SMILES | IC50 [1] [µM] | TDI [2] | inhibition [3] | inhibition [4] |
| --- | --- | --- | --- | --- |
| CC(C)(C)C1CCc2c(sc(NC(=O)CC3SC(N)=NC3=O)c2C#N)C1 (racemic) [listing 1 of 2 here] | 27.1 | – | – | – |
| CC(C)(C)C1CCc2c(sc(NC(=O)CC3SC(N)=NC3=O)c2C#N)C1 (racemic) [listing 2 of 2 here] | – | Active | Active | Active |
| CC(C)(C)C1CCc2c(sc(NC(=O)CC3SC(N)=NC3=O)c2C#N)C1 (single isomer, unassigned; enantiomer 1) | – | – | inactive | – |
| CC(C)(C)C1CCc2c(sc(NC(=O)CC3SC(N)=NC3=O)c2C#N)C1 (single isomer, unassigned; enantiomer 2) | – | – | inactive | – |

Other lines, results leading:

| IC50 [1] [µM] | TDI [2] | inhibition [3] | inhibition [4] | SMILES |
| --- | --- | --- | --- | --- |
| 2.47 | – | – | – | N#Cc1c(NC(=O)CC2SC(N)=NC2=O)sc2c1CCCCCC2 (racemic) [listing 1 of 2 here] |
| – | Active | Active | Active | N#Cc1c(NC(=O)CC2SC(N)=NC2=O)sc2c1CCCCCC2 (racemic) [listing 2 of 2 here] |
| – | – | inactive | – | N#Cc1c(NC(=O)CC2SC(N)=NC2=O)sc2c1CCCCCC2 (single isomer, unassigned; enantiomer 1) |
| – | – | inactive | – | N#Cc1c(NC(=O)CC2SC(N)=NC2=O)sc2c1CCCCCC2 (single isomer, unassigned; enantiomer 2) |
